Columns and labels:
Type in all cases: in vivo, mouse
TGF-β1 = TGF-β1 expression in wound skin tissues of STZ mice (immunoblot, IHC); details: immunoblot and IHC, day 14
Description: Diabetes mouse model and treatments. Nrf2^+/+ and Nrf2^-/- C57BL/6 mice were described previously (see, e.g., Jiang T, et al., Diabetes 59:850-860, 2010) and were housed and handled in accordance with the University of Arizona Institutional Animal Care policies. The STZ-induced diabetic model was previously described (see, e.g., Zheng H, et al., Diabetes 60:3055-3066, 2011) and only 8 week old male mice were included in this study. Briefly, three weeks after STZ injections, fasting glucose levels (FGL, 4 h fast) were measured using the AlphaTRAK system (Abbott Laboratory, North Chicago, Ill.) and mice with a FGL higher than or equal to 250 mg/dL were considered diabetic and included in the study (see, e.g., FIG. 2A and FIG. 3A for a detailed timeline). […] Gross wound closure was quantified by ImageJ software, and wound healing was expressed as the percentage of the original wound area that had healed. […] Morphology was assessed by hematoxylin and eosin (H&E) staining (Vector laboratory, Burlingame, Calif.). […] Protein concentration was measured using Quant-iT Protein Assay (Invitrogen) and 150 μg of protein were resolved by SDS-PAGE and immunoblotting analyses with the indicated antibodies.

NRF2 pathway = test: Immunoblot and IHC of NRF2 and its target genes in wound skin tissues of STZ mice; details: 12.5 mg/kg SF or 50 mg/kg CA i.p. every other day; for protein expression of NRF2 and its target genes HO-1, AKR1C1, and NQO1 (immunoblot): diabetic mouse skin tissue lysates; for NRF2 and HO-1 level by IHC: wound skin tissues of diabetic mice
Description: Diabetes mouse model and treatments. […] The STZ-induced diabetic model was previously described (see, e.g., Zheng H, et al., Diabetes 60:3055-3066, 2011) and only 8 week old male mice were included in this study. Briefly, three weeks after STZ injections, fasting glucose levels (FGL, 4 h fast) were measured using the AlphaTRAK system (Abbott Laboratory, North Chicago, Ill.) and mice with a FGL higher than or equal to 250 mg/dL were considered diabetic and included in the study (see, e.g., FIG. 2A and FIG. 3A for a detailed timeline). The mice (n=5-8) were then allocated randomly to each of the indicated treatment groups and received corn oil (control), 12.5 mg/kg SF or 50 mg/kg CA intraperitoneally every two days until skin tissues were harvested. One week after the treatments, the mice were anesthetized, their backs were shaved and cleaned. Two wounds were made with a sterile 6 mm skin biopsy punch (Health link, Jacksonville, Fla.) and covered with 3M Tegaderm pads. […] The tissues were collected using an 8 mm skin biopsy punch; one half was fixed in 10% buffered formalin and embedded in paraffin while the other half was used for protein extraction. […] Wounds and tissue collection were performed as described above.
Immunohistochemistry (IHC), immunoblot analyses, TGF-β1 immunoassay, and gelatin zymography. […] For IHC, antigen retrieval was performed by boiling in sodium citrate buffer (10 mM, pH 6.0) or EDTA buffer (1 mM, pH 8.0). After blocking endogenous peroxidase and non-specific binding, tissue sections were incubated with the indicated primary antibodies. Staining was performed using the Envision system HRP-DAB kit (DAKO North America, CA) according to the manufacturer's instructions.
For protein detection of mouse skin tissues were homogenized in lysis buffer (50 mM Tris-HCl buffer pH 7.4, 100 mM DTT, 2% SDS, 10% glycerol). Protein concentration was measured using Quant-iT Protein Assay (Invitrogen) and 150 μg of protein were resolved by SDS-PAGE and immunoblotting analyses with the indicated antibodies.
To explore the feasibility of pharmacologic activation of NRF2 in facilitating diabetic wound healing, sulforaphane (SF) and cinnamaldehyde (CA), two well-studied NRF2 activators, were tested for their ability to activate the NRF2-mediated antioxidant response in mouse skin tissues. After induction of diabetes using STZ, diabetic Nrf2^+/+ mice were intraperitoneally injected with corn oil (vehicle control), 12.5 mg/kg SF, or 50 mg/kg CA every other day for 1 week, then the wound surgery was performed and the treatment continued for 2 more weeks (FIG. 3A).

wound skin tissues = test: Apoptosis by TUNEL in wound skin tissues of STZ mice
Description: Diabetes mouse model and treatments. Nrf2^+/+ and Nrf2^-/- C57BL/6 mice were described previously (see, e.g., Jiang T, et al., Diabetes 59:850-860, 2010) and were housed and handled in accordance with the University of Arizona Institutional Animal Care policies. The STZ-induced diabetic model was previously described (see, e.g., Zheng H, et al., Diabetes 60:3055-3066, 2011) and only 8 week old male mice were included in this study. Briefly, three weeks after STZ injections, fasting glucose levels (FGL, 4 h fast) were measured using the AlphaTRAK system (Abbott Laboratory, North Chicago, Ill.) and mice with a FGL higher than or equal to 250 mg/dL were considered diabetic and included in the study (see, e.g., FIG. 2A and FIG. 3A for a detailed timeline). […] Gross wound closure was quantified by ImageJ software, and wound healing was expressed as the percentage of the original wound area that had healed. […] ROS were measured in HaCaT cells using DCF. […] Then, 48 h later, the cells were switched into fresh medium containing 10 μg/mL DCF, incubated 30 min, and fluorescence intensity was measured by flow cytometry. […] For this, 8000 HaCaT cells/well were seeded in LG or HG media, with or without an NRF2 activator, and cell growth was monitored for 72 h. […]

Structure (SMILES)	TGF-β1 expression (TGF-β1)	protein expression of NRF2 and its target genes HO-1, AKR1C1, and NQO1 (immunoblot) (NRF2 pathway)	NRF2 and HO-1 level by IHC (NRF2 pathway)	apoptosis (TUNEL) (wound skin tissues)
O=CC=Cc1ccccc1 [CA, Cinnamaldehyde]	restored to levels comparable to that of Con mice	upregulated	high level	reduced apoptosis to a lesser extent than in Con
C[S@@+]([O-])CCCCN=C=S [SF, L-sulforaphane]	restored to levels comparable to that of Con mice	upregulated	high level	reduced apoptosis to a lesser extent than in Con

— patent US20180344680A1, “COMPOSITIONS AND METHODS FOR TREATMENT, AMELIORATION, AND PREVENTION OF DIABETES-RELATED SKIN ULCERS” (THE ARIZONA BOARD OF REGENTS ON BEHALF OF THE UNIVERSITY OF …, priority 2015, published 2018)
